Source: US20190209697A1, “CELLS LABELLED WITH LIPID CONJUGATES AND METHODS OF USE THEREOF” (priority 2015, published 2019)

Test system: Jurkat cells
Assay: Efficiency of incorporation of AF488-capped glycopolymers into cell membranes, flow cytometry
Type: cell-based
Settings: 10 μM AF488-capped polymer, 1 h at RT
Procedure: Using AF488 labeled polymers, the efficiency with which each glycopolymer was incorporated into cell membranes was measures. Jurkat cells (10^7/mL in serum-free media) were incubated for 1 h at room temperature with 10 μM lipid-conjugated glycopolymer, washed, and then measured for fluorescence by flow cytometry (FIG. 4, panel A).
Jurkat cells were incubated with 10 μM of AF488-capped polymer for 1 h at RT, washed and their fluorescence measured by flow cytometry. […] For FIG. 4-FIG. 5, shown are mean minus background+/−standard deviation of three replicate experiments.
Jurkat cells (10^7/mL) were incubated with AF488-polymers at the given concentration or PBS in serum free media for 1 hr at RT. The cells were then washed, and their fluorescence measured by flow cytometry. Shown are mean and standard deviation of three replicate experiments minus background as measured by cells incubated with PBS instead of polymer.

Substance: DMPC
- level of incorporation into cell membranes: highest levels of incorporation
